From patent US6977262B2, “Dihydropyrazolopyridine compounds and pharmaceutical use thereof” (Mitsubishi Pharma Corporation, priority 2001, dated 2005)

Row | SMILES | melting point [°C]
1 | CCCC1=C(C#N)C(c2ccccc2Cl)c2c[nH]nc2N1 (stereo not drawn) [Example 94, 4-(2-Chlorophenyl)-5-cyano-4,7-dihydro-6-propyl-2H-pyrazolo[3,4-b]pyridine] | 248
2 | COc1ccc(C2=C(C#N)C(c3ccccc3Cl)c3c[nH]nc3N2)cc1 (stereo not drawn) [Example 95, 4-(2-Chlorophenyl)-5-cyano-4,7-dihydro-6-(4-methoxyphenyl)-2H-pyrazolo[3,4-b]pyridine] | 124
3 | O=C1OCC2=C1C(c1ccccc1Cl)c1c[nH]nc1N2 (stereo not drawn) [Example 96, 4-(2-Chlorophenyl)-2,4,7,8-tetrahydrofurano[3,4-b]pyrazolo[4,3-e]pyridin-5-one] | > 270
4 | CCOC(=O)C1=C(C)Nc2n[nH]cc2C1c1cccc2nonc12 (stereo not drawn) [Example 113, Ethyl 4-(2,1,3-benzoxadiazol-4-yl)-4,7-dihydro-6-methyl-2H-pyrazolo[3,4-b]pyridine-5-carboxylate] | 228
5 | CCOC(=O)C1=C(c2ccccc2)Nc2n[nH]cc2C1c1cccc2nonc12 (stereo not drawn) [Example 114, Ethyl 4-(2,1,3-benzoxadiazol-4-yl)-4,7-dihydro-6-phenyl-2H-pyrazolo[3,4-b]pyridine-5-carboxylate] | 190
6 | CCCC1=C([N+](=O)[O-])C(c2cccc(Cl)c2Cl)c2c[nH]nc2N1 (stereo not drawn) [Example 122, 4-(2,3-Dichlorophenyl)-4,7-dihydro-5-nitro-6-propyl-2H-pyrazolo[3,4-b]pyridine] | 239
7 | CCCC1=C([N+](=O)[O-])C(c2cccc3ccccc23)c2c[nH]nc2N1 (stereo not drawn) [Example 123, 4,7-Dihydro-4-(naphthalen-1-yl)-5-nitro-6-propyl-2H-pyrazolo[3,4-b]pyridine] | 226
8 | CCCC1=C([N+](=O)[O-])C(c2cccc3c2OCCC3)c2c[nH]nc2N1 (stereo not drawn) [Example 124, 4,7-Dihydro-4-(3,4-dihydro-2H-benzopyran-8-yl)-5-nitro-6-propyl-2H-pyrazolo[3,4-b]pyridine] | 234
9 | CC1=C([N+](=O)[O-])C(c2cccc(Cl)c2Cl)c2c[nH]nc2N1 (stereo not drawn) [Example 125, 4-(2,3-Dichlorophenyl)-4,7-dihydro-6-methyl-5-nitro-2H-pyrazolo[3,4-b]pyridine] | > 270
10 | CCC1=C([N+](=O)[O-])C(c2cccc(Cl)c2Cl)c2c[nH]nc2N1 (stereo not drawn) [Example 126, 4-(2,3-Dichlorophenyl)-6-ethyl-4,7-dihydro-5-nitro-2H-pyrazolo[3,4-b]pyridine] | 250
11 | CCCCC1=C([N+](=O)[O-])C(c2cccc(Cl)c2Cl)c2c[nH]nc2N1 (stereo not drawn) [Example 127, 6-Butyl-4-(2,3-dichlorophenyl)-4,7-dihydro-5-nitro-2H-pyrazolo[3,4-b]pyridine] | 220
12 | CCCC1=C(C#N)C(c2ccccc2[N+](=O)[O-])c2c[nH]nc2N1 (stereo not drawn) [Example 132, 5-Cyano-4,7-dihydro-4-(2-nitrophenyl)-6-propyl-2H-pyrazolo[3,4-b]pyridine] | 216
13 | CCCC1=C(C#N)C(c2ccccc2C#N)c2c[nH]nc2N1 (stereo not drawn) [Example 133, 5-Cyano-4-(2-cyanophenyl)-4,7-dihydro-6-propyl-2H-pyrazolo[3,4-b]pyridine] | 218

Continued, values first:

Row | melting point [°C] | SMILES
14 | 177 | CCCC1=C(C(=O)OCC)C(c2ccccc2O)c2c[nH]nc2N1 (stereo not drawn) [Example 98, Ethyl 4,7-dihydro-4-(2-hydroxyphenyl)-6-propyl-2H-pyrazolo[3,4-b]pyridine-5-carboxylate]
15 | 179 | CCCC1=C(C(=O)OCC)C(c2ccccc2N)c2c[nH]nc2N1 (stereo not drawn) [Example 99, Ethyl 4-(2-aminophenyl)-4,7-dihydro-6-propyl-2H-pyrazolo[3,4-b]pyridine-5-carboxylate]
16 | 186 | CCCC1=C(C(=O)OCC)C(c2ccccc2CC)c2cn[nH]c2N1 (stereo not drawn) [Example 100, Ethyl 4-(2-ethylphenyl)-4,7-dihydro-6-propyl-1H-pyrazolo[3,4-b]pyridine-5-carboxylate]
17 | 197 | CCCC1=C(C(=O)OCC)C(c2ccccc2CCC)c2cn[nH]c2N1 (stereo not drawn) [Example 101, Ethyl 4,7-dihydro-6-propyl-4-(2-propylphenyl)-1H-pyrazolo[3,4-b]pyridine-5-carboxylate]
18 | 175 | CCCCc1ccccc1C1C(C(=O)OCC)=C(CCC)Nc2[nH]ncc21 (stereo not drawn) [Example 102, Ethyl 4-(2-butylphenyl)-4,7-dihydro-6-propyl-1H-pyrazolo[3,4-b]pyridine-5-carboxylate]
19 | 181 to 183 | CCCC1=C(C(=O)OCC)C(c2cccc3c2CCC3)c2c[nH]nc2N1 (stereo not drawn) [Example 103, Ethyl 4,7-dihydro-4-(indan-4-yl)-6-propyl-2H-pyrazolo[3,4-b]pyridine-5-carboxylate]
20 | 166 | CCCC1=C(C(=O)OCC)C(c2cccc3ccsc23)c2c[nH]nc2N1 (stereo not drawn) [Example 106, Ethyl 4-(benzo[b]thiophen-7-yl)-4,7-dihydro-6-propyl-2H-pyrazolo[3,4-b]pyridine-5-carboxylate]
21 | 207 | CCCC1=C(C(=O)OCC)C(C)(c2ccccc2)c2c[nH]nc2N1 (stereo not drawn) [Example 108, Ethyl 4,7-dihydro-4-methyl-4-phenyl-6-propyl-2H-pyrazolo[3,4-b]pyridine-5-carboxylate]
22 | 185 | CCCC1=C(C(=O)OCC)C(c2cccc(Cl)c2C)c2c[nH]nc2N1 (stereo not drawn) [Example 111, Ethyl 4-(3-chloro-2-methylphenyl)-4,7-dihydro-6-propyl-2H-pyrazolo[3,4-b]pyridine-5-carboxylate]
23 | 180 | CCCC1=C(C(=O)OCC)C(c2cccc3nsnc23)c2c[nH]nc2N1 (stereo not drawn) [Example 112, Ethyl 4-(2,1,3-benzothiadiazol-4-yl)-4,7-dihydro-6-propyl-2H-pyrazolo[3,4-b]pyridine-5-carboxylate]
24 | 226 | CCCC1=C([N+](=O)[O-])C(c2ccccc2Br)c2c[nH]nc2N1 (stereo not drawn) [Example 118, 4-(2-Bromophenyl)-4,7-dihydro-5-nitro-6-propyl-2H-pyrazolo[3,4-b]pyridine]
25 | 223 | CCCC1=C([N+](=O)[O-])C(c2ccccc2OC)c2c[nH]nc2N1 (stereo not drawn) [Example 119, 4,7-Dihydro-4-(2-methoxyphenyl)-5-nitro-6-propyl-2H-pyrazolo[3,4-b]pyridine]
26 | 211 | CCCC1=C([N+](=O)[O-])C(c2ccccc2SC)c2c[nH]nc2N1 (stereo not drawn) [Example 120, 4,7-Dihydro-4-(2-methylthiophenyl)-5-nitro-6-propyl-2H-pyrazolo[3,4-b]pyridine]
27 | 237 | CCCC1=C(C#N)C(c2ccccc2Br)c2c[nH]nc2N1 (stereo not drawn) [Example 128, 4-(2-Bromophenyl)-5-cyano-4,7-dihydro-6-propyl-2H-pyrazolo[3,4-b]pyridine]
28 | 203 | CCCC1=C(C#N)C(c2ccccc2OC)c2c[nH]nc2N1 (stereo not drawn) [Example 129, 5-Cyano-4,7-dihydro-4-(2-methoxyphenyl)-6-propyl-2H-pyrazolo[3,4-b]pyridine]
29 | 216 | CCCC1=C(C#N)C(c2ccccc2SC)c2c[nH]nc2N1 (stereo not drawn) [Example 130, 5-Cyano-4,7-dihydro-4-(2-methylthiophenyl)-6-propyl-2H-pyrazolo[3,4-b]pyridine]
30 | 230 | CCCC1=C(C#N)C(c2ccccc2C)c2c[nH]nc2N1 (stereo not drawn) [Example 131, 5-Cyano-4,7-dihydro-4-(2-methylphenyl)-6-propyl-2H-pyrazolo[3,4-b]pyridine]
